Values quoted from earlier work, collected in article PMC12424150 (Drug Delivery, 2025).

Key:
[1] = design: method as in Wharton et al. [2023]; Lingvay et al. [2024]; details: ref Wharton et al. [2023]; Lingvay et al. [2024]
[2] = ref Dhillon [2018]

| half-life in humans [2] | Molecule | average weight loss [1] |
| --- | --- | --- |
| – | Glucagon-like peptide-1 [GLP-1] | up to 15% |
| 165 to 183 h | CC[C@H](C)[C@H](NC(=O)[C@H](Cc1ccccc1)NC(=O)[C@H](CCC(=O)O)NC(=O)[C@H](CCCCNC(=O)COCCOCCNC(=O)COCCOCCNC(=O)CC[C@H](NC(=O)CCCCCCCCCCCCCCCCC(=O)O)C(=O)O)NC(=O)[C@H](C)NC(=O)[C@H](C)NC(=O)[C@H](CCC(N)=O)NC(=O)CNC(=O)[C@H](CCC(=O)O)NC(=O)[C@H](CC(C)C)NC(=O)[C@H](Cc1ccc(O)cc1)NC(=O)[C@H](CO)NC(=O)[C@H](CO)NC(=O)[C@@H](NC(=O)[C@H](CC(=O)O)NC(=O)[C@H](CO)NC(=O)[C@@H](NC(=O)[C@H](Cc1ccccc1)NC(=O)[C@@H](NC(=O)CNC(=O)[C@H](CCC(=O)O)NC(=O)C(C)(C)NC(=O)[C@@H](N)Cc1cnc[nH]1)[C@@H](C)O)[C@@H](C)O)C(C)C)C(=O)N[C@@H](C)C(=O)N[C@@H](Cc1c[nH]c2ccccc12)C(=O)N[C@@H](CC(C)C)C(=O)N[C@H](C(=O)N[C@@H](CCCNC(=N)N)C(=O)NCC(=O)N[C@@H](CCCNC(=N)N)C(=O)NCC(=O)O)C(C)C [semaglutide] | – |
